Assay results: US20200347136A1, “CONSTRAINED CYCLIC PEPTIDES AS INHIBITORS OF THE CD2:CD58 PROTEIN-PROTEIN INTERACTION FOR TREATMENT OF DISEASES AND AUTOIMMUNE DISORDERS” (Board of Supervisors for the University of Louisiana System, priority 2019, published 2020)
Entries after “also recorded” stand apart in the source; their conditions may differ.

Columns and labels:
[1] = target: T1, HER2 ECD protein (domains I-IV) (Homo sapiens, UniProt P04626); assay: SPR binding to immobilized HER2 ECD; conditions: analyte over immobilized HER2 ECD
T1 construct: immobilizing HER2 ECD protein (domains I-IV, 620 amino acids)
T1 sequence (P04626 23-652 limits assumed): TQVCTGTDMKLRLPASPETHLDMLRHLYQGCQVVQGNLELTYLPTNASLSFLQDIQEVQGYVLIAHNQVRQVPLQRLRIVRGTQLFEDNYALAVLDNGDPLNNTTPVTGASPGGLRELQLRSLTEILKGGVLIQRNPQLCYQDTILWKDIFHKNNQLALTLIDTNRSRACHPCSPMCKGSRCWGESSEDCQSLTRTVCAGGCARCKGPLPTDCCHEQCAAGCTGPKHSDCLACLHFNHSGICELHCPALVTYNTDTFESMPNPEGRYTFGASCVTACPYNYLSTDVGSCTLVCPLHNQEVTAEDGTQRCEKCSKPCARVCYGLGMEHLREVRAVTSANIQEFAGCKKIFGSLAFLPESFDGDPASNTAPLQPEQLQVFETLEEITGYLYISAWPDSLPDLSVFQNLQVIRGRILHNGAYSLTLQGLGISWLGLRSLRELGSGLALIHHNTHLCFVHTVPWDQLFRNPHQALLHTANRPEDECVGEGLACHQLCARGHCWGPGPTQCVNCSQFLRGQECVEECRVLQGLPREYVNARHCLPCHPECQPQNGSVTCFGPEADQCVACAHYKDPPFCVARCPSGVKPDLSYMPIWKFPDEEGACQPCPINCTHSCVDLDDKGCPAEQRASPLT
Method: Binding affinities were obtained by global fitting analysis of the titration curve to the 1:1 Langmuir interaction model, and the Kd value was calculated.

[2] = thermal stability by circular dichroism and MALDI-TOF; type: physicochemical; conditions: CD and mass spectrum, 25-75° C., in solution
Method: To confirm further, a mass spectrum of SFTI-G5 was obtained from the solution used to record the CD spectrum at different temperatures. Freeze-dried samples of different temperatures were analyzed via MALDI-TOF mass spectrometry.

[3] = system: T cells (splenocytes); assay: immunogenicity, flow cytometry T-cell proliferation (Ki-67) in primed BALB/c mice; type: in vivo; conditions: BALB/c mice primed 6 mg/kg; splenocytes with 5 μM peptide, 48 h
Method: SFTI-G5 is not immunogenic in mice. Molecules that are not endogenous to the body can trigger cellular responses when administered. […] Ki-67 is a proliferation marker of nuclear protein and has been used to measure specific T-cell responses. […] The animals were sacrificed on the 13th day, and splenocytes were harvested and cultured in vitro from both control and primed groups, either in the presence or absence of the peptide. Concanavalin A (5 μg/mL), an antigen-independent mitogen known to induce T-cell proliferation, was used as a positive control.

[4] = system: MCF-7 cells; conditions: read-out: IC50 MCF-7 (HER2−); antiproliferative activity
Method: (§1) Antiproliferative activity of grafted cyclic peptides. Antiproliferative activity of the designed grafted peptides was evaluated in different HER2-overexpressing cancer cell lines as well as HER2 negative cancer cell lines.
(§2) Table 1. […] Single letter amino acid code was used for peptide sequence. Lower case letters refer to D amino acids and capital letters refer to L amino acids. Chirality of Anapa was indicated with R and S configuration in italics. Antiproliferative activity of peptides in cancer cell lines are given as IC50 in μM. Disulfide bonds between the cysteines are underlined.

[5] = system: Calu-3 cells; conditions: read-out: IC50 Calu-3 (HER2+); antiproliferative activity
Method: as §1, §2

[6] = system: BT-474 cells; conditions: read-out: IC50 BT-474 (HER2+); antiproliferative activity
Method: as §1, §2

[7] = system: A549 cells; conditions: read-out: IC50 A549 (HER2+); antiproliferative activity
Method: as §1, §2

[8] = system: MCF-10A cells; assay: Cell Titer-Glo antiproliferative assay, MCF-10A; type: cell-based; conditions: antiproliferative activity, non-cancerous breast epithelial cell line
Method: as §1, §2

[9] = disulfide bond stability, CD spectrum with dithiothreitol; type: physicochemical; conditions: presence versus absence of dithiothreitol
[10] = system: phosphorylation of HER2 and Akt; assay: Western blot of HER2 and Akt phosphorylation, A549 cells; type: cell-based
Method: Binding to ECD protein at different concentrations. Kinetics of association and dissociation are shown. Inset saturation curve for binding. […] EGFR was immobilized on CM5-chip and HER2 was added as analyte. Binding of HER2 to EGFR is shown in red. […] Control represents cells without the peptide and without one of the antibodies (B & E). […] Control represents cells without the peptide and without one of the antibodies (F). […] Nucleus was stained with DAPI. III) Quantification of PLA assay fluorescence intensity. 3-6 different fields were chosen, and intensity of red fluorescence was measured using ImageJ software. […] Scale 20 μm. Magnification 40×. *p<0.05, ** p<0.01. Mean±SEM. […] The visualization of GAPDH was used to ensure equal sample loading in each lane. […] II) Quantification of Western blot images using densitometry. *p<0.05 *** P<0.001. Mean±SEM.
The phosphorylation of HER2 was measured by the p-HER2 monoclonal antibody. […] Lapatinib, an EGFR and HER2 kinase dual inhibitor were used as a positive control.

[11] = system: A549 Red-FLuc lung tumors; assay: experimental metastasis model of lung cancer, A549 Red-FLuc cells
[12] = system: Calu-3 xenograft tumors; assay: Calu-3 xenograft model of lung cancer in nude mice; type: in vivo
Method: 5×10^6 Calu-3 cells suspended in serum-free medium were subcutaneously inoculated in left flank region of mice to induce lung cancer (Foxn1-nude). Peptide (8 mg/kg) was administered via intratumoral injection three times a week after 10 days, Pertuzumab was injected with a loading dose of 12 mg/kg and then 6 mg/kg as maintenance dose intraperitonially once a week, Trastuzumab and pertuzumab combination was injected at a loading dose of 12 mg/kg and then 6 mg/kg as maintenance dose once a week. […] For comparison, pertuzumab (up triangle, blue) and trastuzumab and pertuzumab combination (down triangle, red) also shown (with standard errors for n=6). […] C) PPI inhibition assessed by PLA on tumor tissue sample. […] Tumor sections were homogenized, and protein was extracted and subjected to Western blot. […] (** p<0.01). Mean±SEM.
HER2 dimerization inhibitors such as pertuzumab and trastuzumab and pertuzumab combinations were also administered as control groups (FIG. 11A). […] During the course of the experiment, the tumor size in the control xenograft group without any treatment continued to increase, reaching a diameter of ˜9 mm in 28 days (FIG. 11B).
To evaluate the phosphorylation of HER2 protein, Western blot analysis was performed on frozen tumor samples.

SMILES | SPR response on HER2 ECD [1] | thermal stability [2] | immune response: Ki-67 expression in CD3+ subsets [3] | IC50 [4] [nM] | IC50 [5] [nM] | IC50 [6] [nM] | IC50 [7] [nM] | IC50 [8] [nM] | CD spectrum on addition of DTT [9] | total HER2 protein levels [10] | phosphorylation of Akt ([10]; 1 μM, 40 h, vs control) | phosphorylation of HER2 kinase ([10]; 1 μM, 40 h, vs control) | rate of tumor growth, total flux (p/s) ([11]; 6 mg/kg i.v. twice a week, vs vehicle) | H&E histology of lungs: enlarged hyperchromatic nuclei, eosinophilic cytoplasm ([11]; vs vehicle control) | tumor growth ([12]; Calu-3 xenograft, SFTI-G5 8 mg/kg intratumoral thrice a week, antibodies 12 then 6 mg/kg once a week) | tolerability, body weight and clinical observations ([12]; SFTI-G5 monotherapy dosing schedule) | EGFR:HER2 dimerization in tumor sections (PLA) ([12]; vs control tumor sample) | HER2 phosphorylation in tumor samples (Western blot) ([12]; vs vehicle treatment)
NCCCC[C@H](N)C(=O)NC(CC(=O)N[C@@H](Cc1ccccc1)C(=O)O)c1cccc2ccccc12 (stereo partly drawn) [Control, H2N-K(X)F-OH] | no SPR response was recorded | – | – | – | – | – | – | – | – | – | – | – | – | – | – | – | – | –
CC[C@H](C)[C@@H]1NC(=O)[C@H](CCCNC(=N)N)NC(=O)C[C@@H](c2cccc3ccccc23)NC(=O)[C@@H]2CSSC[C@H](NC(=O)C[C@@H](c3cccc4ccccc34)NC(=O)[C@H](CCCNC(=N)N)NC(=O)[C@@H]3CCCN3C(=O)[C@@H]3CCCN3C1=O)C(=O)N[C@@H](Cc1ccccc1)C(=O)N1CCC[C@H]1C(=O)N[C@@H](CC(=O)O)C(=O)N[C@@H](CC(=O)O)C(=O)N[C@@H](Cc1ccccc1)C(=O)N2 [SFTI-G5, Cyclo(C(S-X)RIPPR(S-X)CFPDDF)] | – | stable at 75 °C; also recorded: stable up to 75 °C | did not show any significant immune response; also recorded: non-immunogenic | 25600 ± 1460 | 73 | 280 | 369 | > 50000 | sharp change in CD spectrum | no significant change in total HER2 protein levels | significantly inhibited the phosphorylation of Akt | significantly decreases the phosphorylation of HER2 kinase | decreased; also recorded: significant reduction in tumor growth | there were less | delay in tumor growth that was significant compared to control; also recorded: delayed tumor growth | well-tolerated | markedly diminished signals from dimerization | significant inhibition of HER2 phosphorylation
